# Values quoted from earlier work in publication PMC6243681 (Chemical Science, 2018).
sequence,measurement,value
THRPPMWSPVWP,stability in serum / to serum proteases,low stability
